According to ChEMBL document CHEMBL4814028, “Design, synthesis, and antibacterial evaluation of PFK-158 derivatives as potent agents against drug-resistant bacteria” (Bioorg Med Chem Lett, 2021):
In brackets after ≈: the same amount, converted by molar mass.

What was measured:
[1] = system: Staphylococcus epidermidis; assay: Antibacterial activity against methicillin-sensitive Staphylococcus epidermidis ATCC 12228 by agar method; format: functional
[2] = system: Staphylococcus epidermidis; assay: Antibacterial activity against methicillin-resistant Staphylococcus epidermidis 16-5 by agar method; format: functional
Staphylococcus aureus [3] = assay: Antibacterial activity against methicillin-sensitive Staphylococcus aureus ATCC 29213 by agar method; format: functional
Staphylococcus aureus [4] = assay: Antibacterial activity against methicillin-resistant Staphylococcus aureus ATCC 33591 by agar method; format: functional
Enterococcus faecalis [5] = assay: Antibacterial activity against Vancomycin-sensitive Enterococcus faecalis ATCC 29212 by agar method; format: functional
Enterococcus faecalis [6] = assay: Antibacterial activity against vancomycin-resistant Enterococcus faecalis ATCC 51299 by agar method; format: functional
Escherichia coli [7] = assay: Antibacterial activity against ESBLs positive Escherichia coli ATCC 35218 by agar method; format: functional
Escherichia coli [8] = assay: Antibacterial activity against ESBLs negative Escherichia coli ATCC 25922 by agar method; format: functional
Escherichia coli [9] = assay: Antibacterial activity against NDM-1 positive Escherichia coli ATCC 2469 by agar method; format: functional
Acinetobacter baumannii = assay: Antibacterial activity against carbapenem-resistant Acinetobacter baumannii 16-33 by agar method; format: functional
[10] = system: Staphylococcus epidermidis; assay: Potency index, ratio of Levofloxacin MIC to test compound MIC for antibacterial activity against methicillin-resistant Staphylococcus epidermidis […] 16-5; format: functional
A549 = assay: Cytotoxicity against human A549 cells; format: cell-based
Escherichia coli [11] = assay: Antibacterial activity against carbapenem-resistant Escherichia coli 08-85 mcr-1 positive isolate by checkerboard assay; format: functional
Escherichia coli [12] = assay: Synergistic antibacterial activity against carbapenem-resistant Escherichia coli 08-85 mcr-1 positive isolate in presence of colistin by checkerboard assay; format: functional
Escherichia coli [13] = assay: Synergistic antibacterial activity against carbapenem-resistant Escherichia coli 08-85 mcr-1 positive isolate assessed as fractional inhibitory concentration index in presence of colistin by checkerboard assay; format: functional
Enterobacter cloacae [14] = assay: Antibacterial activity against carbapenem-resistant Enterobacter cloacae D01 mcr-1 negative isolate by checkerboard assay; format: functional
Enterobacter cloacae [15] = assay: Synergistic antibacterial activity against carbapenem-resistant Enterobacter cloacae D01 mcr-1 negative isolate in presence of colistin by checkerboard assay; format: functional
Enterobacter cloacae [16] = assay: Synergistic antibacterial activity against carbapenem-resistant Enterobacter cloacae D01 mcr-1 negative isolate assessed as fractional inhibitory concentration index in presence of colistin by checkerboard assay; format: functional

| Compound | MIC [1] [µg/mL] | MIC [2] [µg/mL] | MIC (Staphylococcus aureus [3]) [µg/mL] | MIC (Staphylococcus aureus [4]) [µg/mL] | MIC (Enterococcus faecalis [5]) [µg/mL] | MIC (Enterococcus faecalis [6]) [µg/mL] | MIC (Escherichia coli [7]) [µg/mL] | MIC (Escherichia coli [8]) [µg/mL] | MIC (Escherichia coli [9]) [µg/mL] | MIC (Acinetobacter baumannii) [µg/mL] | Ratio [10] | IC50 (A549) [µM] | MIC (Escherichia coli [11]) [µg/mL] | MIC (Escherichia coli [12]) [µg/mL] | fractional inhibitory concentration index (FICI) (Escherichia coli [13]) | MIC (Enterobacter cloacae [14]) [µg/mL] | MIC (Enterobacter cloacae [15]) [µg/mL] | fractional inhibitory concentration index (FICI) (Enterobacter cloacae [16]) |
| --- | --- | --- | --- | --- | --- | --- | --- | --- | --- | --- | --- | --- | --- | --- | --- | --- | --- | --- |
| O=C(/C=C/c1ccc2ccccc2n1)c1ccccn1 | 1 (≈ 3.84 µM) | 1 (≈ 3.84 µM) | 2 (≈ 7.68 µM) | 1 (≈ 3.84 µM) | 4 (≈ 15.4 µM) | 4 (≈ 15.4 µM) | > 32 | > 32 | > 32 | > 32 | 2 | 18.5 | 1020 | 32 | 0.281 | 1020 | 4 | 0.012 |
| O=C(/C=C/c1ccc2ccccc2n1)c1ccccc1 | 2 (≈ 7.71 µM) | 4 (≈ 15.4 µM) | 2 (≈ 7.71 µM) | 2 (≈ 7.71 µM) | 128 (≈ 494 µM) | 128 (≈ 494 µM) | > 128 | > 128 | > 128 | > 128 | 2 | – | – | – | – | – | – | – |
| O=C(/C=C/c1ccc2ccccc2n1)c1cccnc1 | 2 (≈ 7.68 µM) | 4 (≈ 15.4 µM) | 2 (≈ 7.68 µM) | 2 (≈ 7.68 µM) | 2 (≈ 7.68 µM) | 8 (≈ 30.7 µM) | > 32 | > 32 | > 32 | > 32 | 2 | 21.1 | 1020 | 64 | 0.313 | 1020 | 64 | 0.07 |
| O=C(/C=C/c1ccccn1)c1ccc2ccccc2c1 | 1 (≈ 3.86 µM) | 2 (≈ 7.71 µM) | 1 (≈ 3.86 µM) | 1 (≈ 3.86 µM) | 8 (≈ 30.9 µM) | 8 (≈ 30.9 µM) | > 128 | > 128 | > 128 | > 128 | – | – | 1020 | 128 | 0.375 | 1020 | 16 | 0.023 |
| O=C(/C=C/c1ccc2c(C(F)(F)F)cccc2n1)c1cccnc1 | 2 (≈ 6.09 µM) | 2 (≈ 6.09 µM) | 2 (≈ 6.09 µM) | 2 (≈ 6.09 µM) | 32 (≈ 97.5 µM) | 32 (≈ 97.5 µM) | > 128 | > 128 | > 128 | 128 (≈ 390 µM) | 2 | > 50 | – | – | – | – | – | – |
| O=C(/C=C/c1ccc2ccc(C(F)(F)F)cc2n1)c1ccncc1 [PFK-158] | 1 (≈ 3.05 µM) | 2 (≈ 6.09 µM) | 2 (≈ 6.09 µM) | 2 (≈ 6.09 µM) | 4 (≈ 12.2 µM) | 4 (≈ 12.2 µM) | > 32 | > 32 | > 32 | > 32 | 2 | 15 | 1020 | 2 | 0.252 | 1020 | 0.5 | 0.008 |
